Consider three molecules from publication PMC11033359 (Frontiers in Pharmacology, 2024).

A word on the IC50: it is the concentration needed to halve the response being measured. What is called Ki is a dissociation constant, usually derived from enzyme kinetics or from competition with a known ligand. By Km is commonly meant the substrate concentration at which the rate is half of its maximum. The MRT last is a mean duration of stay, worked out from the concentration-time curve. A word on the MRT inf: it is a mean duration of stay, worked out from the concentration-time curve.

The subject of data set [1] is RLMs (rat liver microsomes). The experiment in a line: Inhibition of tofacitinib metabolism (M8 formation) in RLMs by furanocoumarins. The format is in vitro ADME. The following applies: for inhibitory effectiveness on RLMs (screening, M8 content): 100 μM furanocoumarin, 0.3 mg/mL RLMs; for IC50: substrate tofacitinib at about Km, 30 min, 37°C. As to the method:
(§1) All except NADPH were mixed on ice.
(§2) Statistical analysis was conducted using Student's t-test.

In data set [2] the test system is HLMs (human liver microsomes). As to the kind of experiment: Inhibition of tofacitinib metabolism (M8 formation) in HLMs. The format is in vitro ADME. The note with it: for Inhibition type / Ki: substrate tofacitinib; for IC50: substrate tofacitinib at about Km, 30 min, 37°C. On the procedure:
as §1, §2

Data set [3] has as its target recombinant human CYP3A4 (rCYP3A4) (Homo sapiens, UniProt P08684). The experiment in a line: Inhibition of tofacitinib metabolism (M8 formation) by rCYP3A4. On the procedure: as §1, §2
The test system of data set [4] is RLMs (rat liver microsomes). The experiment in a line: Michaelis-Menten kinetics of tofacitinib metabolism (M8 formation) in RLMs. The data set is classed as in vitro ADME. The following applies: tofacitinib metabolism to M8, no inhibitor, n = 3. On the procedure: as §1, §2
Data set [5] deals with HLMs (human liver microsomes). As to the kind of experiment: Michaelis-Menten kinetics of tofacitinib metabolism (M8 formation) in HLMs. The format is in vitro ADME. The note with it: tofacitinib metabolism to M8, no inhibitor, n = 3. As to the method: as §1, §2
A further data set can be described thus: in vivo. More on the design: species or system Sprague Dawley rats. The following applies: male, Sprague-Dawley, rat, po, 10 mg/kg. On the procedure:
Male Sprague Dawley (SD) rats (average weighing 220–250) g were purchased from the laboratory animal center of Wenzhou Medical University, Zhejiang Province, China. Animals were maintained in a controlled environment with a 12 h light-dark cycle at 20°C–25°C and 55% ± 15% relative humidity. Diet intake was not allowed for a period of 12 h prior to the experiment. Then, water was allowed to be free and food was provided after the experiment. All the experimental procedures and protocols were reviewed and approved by the animal ethics committee of Wenzhou Medical University according to the guide for the care and use of laboratory animals (xmsq2021-0409). 36 male rats aged 8–10 weeks were randomly selected and divided into six groups for gavage. […] Blood (300 μL) was collected from the tail veins into 1.5 mL tubes at 5, 15, and 30 min and 1, 2, 3, 4, 6, 8, 12, and 24 h after administering the drugs. The supernatant was collected and stored at −20°C after centrifugation at 4000 rpm for 10 min. The samples were restored to RT before analysis. 50 μL sample was accurately drawn to 1.5 mL of EP tube, 150 μL of midazolam internal standard solution (200 ng/mL) was added to the tube, then placed and vortexed for 15 s. After centrifugation at 13, 000 rpm for 15 min, 150 µL of supernatant was prepared for the UPLC-MS/MS system to analyze.
as §2

Entries after “also recorded” stand apart in the source; their conditions may differ. Where two headings read alike, the source gives them in different places.

recombinant human CYP3A4 (rCYP3A4), sequence (P08684 whole entry): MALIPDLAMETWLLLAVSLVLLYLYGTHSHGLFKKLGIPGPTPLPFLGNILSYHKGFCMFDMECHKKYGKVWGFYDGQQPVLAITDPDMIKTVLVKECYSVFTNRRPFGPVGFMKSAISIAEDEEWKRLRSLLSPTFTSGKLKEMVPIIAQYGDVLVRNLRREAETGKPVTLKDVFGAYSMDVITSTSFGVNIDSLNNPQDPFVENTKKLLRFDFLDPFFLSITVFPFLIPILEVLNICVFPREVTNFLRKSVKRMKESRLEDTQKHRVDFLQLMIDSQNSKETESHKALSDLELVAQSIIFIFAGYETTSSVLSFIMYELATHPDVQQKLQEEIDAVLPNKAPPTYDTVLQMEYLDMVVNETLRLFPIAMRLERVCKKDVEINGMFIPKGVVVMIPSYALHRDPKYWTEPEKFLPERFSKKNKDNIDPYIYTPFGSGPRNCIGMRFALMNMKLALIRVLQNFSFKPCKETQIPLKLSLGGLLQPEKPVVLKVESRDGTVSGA

Regarding `O=c1ccc2ccc3occc3c2o1` [Isopsoralen], the “inhibitory effectiveness on RLMs (screening, M8 content)” value in data set [1] is listed as “potent inhibitory activity”. Moreover, the Inhibition type result was “competitive suppression; also recorded: Competitive inhibition” in data set [1] (RLMs, substrate tofacitinib); “competitive suppression; also recorded: Competitive inhibition” in data set [2]; “competitive suppression; also recorded: Competitive inhibition” in data set [3] (rCYP3A4, substrate tofacitinib). Besides, the 50% inhibitory concentration (IC50) in data set [1] (RLMs) turned out to be 19.3 µM; in data set [2], 12.3 µM; in data set [3] (IC50, rCYP3A4, substrate tofacitinib at about Km, 30 min, 37°C) it was 17.1 µM. Moreover, the Ki in data set [2] was 1.77 µM; in data set [3] (Ki, rCYP3A4, substrate tofacitinib), 15.4 µM. Besides, the “risk of DDI with tofacitinib (from Ki)” value in data set [3] is listed as “medium”.

In the case of `C[C@@H]1CCN(C(=O)CC#N)C[C@@H]1N(C)c1ncnc2[nH]ccc12` [tofacitinib, Tofacitinib], the Michaelis constant (Km) in data set [4] stood at 76.2 ± 4.51 µM; in data set [5], 65.8 ± 4.75 µM; in data set [1] (RLMs, bergapten 0 μM) it was 65.5 µM; in data set [1] (RLMs, bergapten 0.5 μM), 72.3 µM; in data set [1] (RLMs, bergapten 1 μM) it was 88.6 µM; in data set [1] (RLMs, bergapten 2 μM) it was 160 µM. Besides, the Michaelis constant (Km) in data set [1] (RLMs, bergapten 4 μM) was determined as 411 µM; in data set [1] (RLMs, isopsoralen 0 μM), 77.7 µM; in data set [1] (RLMs, isopsoralen 5 μM) it was 114 µM; in data set [1] (RLMs, isopsoralen 10 μM), 259 µM; in data set [1] (RLMs, isopsoralen 20 μM) it was 538 µM; in data set [1] (RLMs, isopsoralen 40 μM) it was 410 µM. Moreover, the Michaelis constant (Km) is 47.8 µM in data set [2] (bergapten 0 μM); 53.1 µM in data set [2] (bergapten 0.5 μM); 76.7 µM in data set [2] (bergapten 1 μM); 190 µM in data set [2] (bergapten 2 μM); about 5860 µM in data set [2] (bergapten 4 μM); 61.7 µM in data set [2] (isopsoralen 0 μM). The Km in data set [2] (isopsoralen 5 μM) worked out at 71.1 µM; in data set [2] (isopsoralen 10 μM), 134 µM; in data set [2] (isopsoralen 20 μM), 432 µM; in data set [2] (isopsoralen 40 μM), 930 µM. Besides, the Vmax in data set [4] worked out at 7.259 ± 0.1879 M8 area ratio; in data set [5], 2.802 ± 0.0842 M8 area ratio; in data set [1] (RLMs, bergapten 0 μM), 8.021 M8 area ratio; in data set [1] (RLMs, bergapten 0.5 μM), 8.054 M8 area ratio; in data set [1] (RLMs, bergapten 1 μM), 8.111 M8 area ratio; in data set [1] (RLMs, bergapten 2 μM) it was 8.689 M8 area ratio. In addition, the Vmax in data set [1] (RLMs, bergapten 4 μM) is recorded as 9.555 M8 area ratio; in data set [1] (RLMs, isopsoralen 0 μM), 5.190 M8 area ratio; in data set [1] (RLMs, isopsoralen 5 μM), 5.555 M8 area ratio; in data set [1] (RLMs, isopsoralen 10 μM), 5.529 M8 area ratio; in data set [1] (RLMs, isopsoralen 20 μM) it was 4.503 M8 area ratio; in data set [1] (RLMs, isopsoralen 40 μM), 2.664 M8 area ratio. The Vmax in data set [2] (bergapten 0 μM) is 2.973 M8 area ratio; in data set [2] (bergapten 0.5 μM), 2.960 M8 area ratio; in data set [2] (bergapten 1 μM), 3.018 M8 area ratio; in data set [2] (bergapten 2 μM), 4.088 M8 area ratio; in data set [2] (bergapten 4 μM), “∼43.85 M8 area ratio”; in data set [2] (isopsoralen 0 μM), 1.886 M8 area ratio. The Vmax in data set [2] (isopsoralen 5 μM) was 1.938 M8 area ratio; in data set [2] (isopsoralen 10 μM), 1.718 M8 area ratio; in data set [2] (isopsoralen 20 μM), 2.148 M8 area ratio; in data set [2] (isopsoralen 40 μM) it was 2.589 M8 area ratio. Moreover, the CLz/F in the data set “in vivo” amounted to 144 ± 39.3 mL/min/kg. Also, the t1/2z in “in vivo” was 1.73 ± 0.44 h. In addition, in “in vivo” (MRT(0-t)), the mean residence time (MRT last) came out at 2.1 ± 0.27 h. This molecule showed an MRT inf in “in vivo” (MRT(0-∞)) of 2.19 ± 0.28 h.

Turning to `COc1c2ccoc2cc2oc(=O)ccc12` [Bergapten, 5-methoxy-psoralen], in data set [1], the “inhibitory effectiveness on RLMs (screening, M8 content)” value is reported as “potent inhibitory activity”. For the same molecule, the Inhibition type entry in data set [1] (RLMs, substrate tofacitinib) was “Competitive inhibition”; in data set [1] (RLMs, substrate tofacitinib, listed as bergapten), “competitively inhibited”; in data set [2] it was “Competitive inhibition”; in data set [2] (listed as bergapten), “competitively inhibited”; in data set [3] (rCYP3A4, substrate tofacitinib) it was “Competitive inhibition”; in data set [3] (rCYP3A4, substrate tofacitinib, listed as bergapten), “competitively inhibited”. Further, the inhibitory constant (Ki) in data set [1] (RLMs, substrate tofacitinib) was found to be 0.443 µM; in data set [2], 0.189 µM; in data set [3], 1.22 µM. In addition, the values for the half-maximal inhibitory concentration (IC50) in data set [1] (RLMs), in data set [2] and in data set [3] were 2.62 µM, 2.65 µM and 1.42 µM, respectively.
